In patent US8183252B2, “Heterocyclic aspartyl protease inhibitors” (Schering Corporation, priority 2007, dated 2012):

Molecular target: T1, human liver Cathepsin D (Homo sapiens, UniProt P07339)
T1 construct: Purified (>95%) human liver Cathepsin D; purchased Athens Research & Technology 16-12-030104; host or cells: human liver (tissue-derived)
Assay: Human Cathepsin D FRET Assay
Format: biochemical
Settings: Ki interpolated from IC50 using Km 4 uM and substrate 2.5 uM; read-out: hCathD Ki
Description: This assay can be run in either continuous or endpoint format. […] Substrate and enzyme are commercially available.
The assay is run in a 30 ul final volume using a 384 well Nunc black plate. 8 concentrations of compound are pre-incubated with enzyme for 30 mins at 37 C followed by addition of substrate with continued incubation at 37 C for 45 mins. The rate of increase in fluorescence is linear for over 1 h and is measured at the end of the incubation period using a Molecular Devices FLEX station plate reader.
Compound is diluted to 3× final concentration in assay buffer containing 3% DMSO. […] 10 ul of substrate is added to each well mixed and spun briefly to initiate the reaction.

T1 sequence (P07339 65-161 limits assumed): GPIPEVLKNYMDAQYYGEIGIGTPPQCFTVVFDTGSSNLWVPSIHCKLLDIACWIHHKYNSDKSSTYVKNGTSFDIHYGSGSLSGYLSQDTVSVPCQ
T1 sequence (P07339 169-412 limits assumed): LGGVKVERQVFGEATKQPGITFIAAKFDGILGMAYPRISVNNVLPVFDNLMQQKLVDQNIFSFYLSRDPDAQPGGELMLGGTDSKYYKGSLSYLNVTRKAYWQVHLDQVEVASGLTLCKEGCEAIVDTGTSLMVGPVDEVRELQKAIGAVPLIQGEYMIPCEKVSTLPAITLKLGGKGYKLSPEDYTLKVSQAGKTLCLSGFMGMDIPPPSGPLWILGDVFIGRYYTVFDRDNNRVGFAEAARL

Row | Ki [µM] | SMILES
1 | 0.00045 | N=C1N[C@](CCC2CCCCC2)(CC2CCCCC2)C(=O)N1Cc1ccc(Cl)cc1Cl [drawing 4522]

Same assay, conditions: compounds listed as exhibiting hCathD Ki under 75 nM; Ki interpolated from IC50, Km 4 uM, substrate 2.5 uM

Row | SMILES | Ki [µM]
2 | CCCCNC(=O)NCc1ccc(CN2C(=N)NC(CCC3CCCCC3)(CC3CCCCC3)CC2=O)cc1 (stereo not shown) | < 0.075
3 | CCCCc1cccc(C2(CCCC)NC(=N)N(CC3CCN(C(=O)COc4ccccc4)CC3)C2=O)c1 (stereo not shown) | < 0.075
4 | CCCCOC1CCCC(C[C@@]2(CCC3CCCCC3)NC(=N)N(C)C2=O)C1 (stereo partly shown) | < 0.075

The remaining lines, values ahead:

Row | Ki [µM] | SMILES
5 | < 0.075 | N=C1N[C@](CCC2CCCCC2)(CC2CCCCC2)C(=O)N1CCC(c1ccccc1)c1ccccc1
6 | < 0.075 | N=C1NC(CCC2CCCCC2)(c2cccc(Br)c2)C(=O)N1CC1CCN(C(=O)COc2ccccc2)CC1 (stereo not shown)
7 | < 0.075 | C[C@@H](C1CCCCC1)N1C(=N)N[C@](CCC2CCCCC2)(CC2CCCCC2)C1=O
8 | < 0.075 | CCC[C@H]1CN(Cc2ccc(CC3C(=N)N[C@](CCC4CCCCC4)(CC4CCCCC4)C3=O)cc2)C(=O)N1 (stereo partly shown)
9 | < 0.075 | N=C1N[C@](CCC2CCCCC2)(CC2CCCCC2)C(=O)N1Cc1cccc([N+](=O)[O-])c1
10 | < 0.075 | N=C1N[C@](CCC2CCCCC2)(CC2CCCCC2)C(=O)N1Cc1ccc(F)cc1Cl
11 | < 0.075 | CCCCNC(=O)NCc1ccc(CN2C(=N)NC(CCC3CCCCC3)(CC3CCCCC3)C2=O)cc1 (stereo not shown)
12 | < 0.075 | N=C1N[C@](CCC2CCCCC2)(CC2CCCCC2)C(=O)N1Cc1ccc([N+](=O)[O-])cc1
13 | < 0.075 | Cc1ccccc1CN1C(=N)N[C@](CCC2CCCCC2)(CC2CCCCC2)C1=O
14 | < 0.075 | N=C1N[C@](CCC2CCCCC2)(CC2CCCCC2)C(=O)N1Cc1ccc(F)cc1
15 | < 0.075 | N=C1NC(CCC2CCCCC2)(CC2CCCCC2)C(=O)N1CC1CCN(C(=O)COc2ccccc2)CC1 (stereo not shown)
16 | < 0.075 | N=C1N[C@](CCC2CCCCC2)(CC2CCCCC2)C(=O)N1Cc1ccc(Cl)cc1Cl [drawing 4505]
17 | < 0.075 | CCCCC1(c2cccc(Br)c2)NC(=N)N(CC2CCN(C(=O)COc3ccccc3)CC2)C1=O (stereo not shown)
18 | < 0.075 | CC(C)C[C@H](CO)N1C(=N)N[C@](CCC2CCCCC2)(CC2CCCCC2)C1=O

Molecular target: T2, human BACE1 (sproBACE1) (Homo sapiens, UniProt P56817)
T2 construct: sBACE1, corresponding to amino acids 1-454; made in house; host or cells: Sf9 insect cells (baculovirus), secreted into the medium
Assay: BACE-1 Peptide Hydrolysis Assay (HTRF)
Format: biochemical
Settings: not given
How it was run: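 Secreted sBACE1-myc/His from baculovirus-infected sf9 cells, purified on Q-sepharose then Ni-NTA. Substrate-initiated reactions ran 3 hr at 30° C., then were stopped with KF buffer (pH 8.0) containing SA-XL665 for HTRF read-out. EC50 was fitted by sigmoidal dose-response to percent change in ratio.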

T2 sequence (P56817 22-454): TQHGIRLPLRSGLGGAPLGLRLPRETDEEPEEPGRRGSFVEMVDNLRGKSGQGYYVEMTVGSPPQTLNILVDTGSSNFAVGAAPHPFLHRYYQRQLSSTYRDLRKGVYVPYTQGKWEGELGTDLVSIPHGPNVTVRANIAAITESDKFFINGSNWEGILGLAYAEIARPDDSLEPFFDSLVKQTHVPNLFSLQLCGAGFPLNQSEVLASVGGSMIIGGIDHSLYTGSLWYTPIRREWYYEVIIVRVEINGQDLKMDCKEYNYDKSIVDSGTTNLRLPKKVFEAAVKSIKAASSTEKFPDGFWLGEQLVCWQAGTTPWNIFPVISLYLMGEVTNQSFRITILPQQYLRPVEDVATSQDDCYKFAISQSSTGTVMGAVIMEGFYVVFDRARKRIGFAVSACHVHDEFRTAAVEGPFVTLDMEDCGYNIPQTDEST

Row | SMILES | Ki [µM]
19 | CC(=O)N1CCC(CN2C(=N)NC(C)(c3cccc(-c4cn[nH]c4)c3)C2=O)CC1 (stereo not shown) | < 5

Same assay, conditions: read-out: BACE-1 Ki

Row | SMILES | Ki [µM]
20 | CN1C(=N)NC(c2ccccc2)(c2cc(-c3ccc4c(c3)OCO4)cs2)C1=O (stereo not shown) | < 5
21 | COc1cncc(-c2cccc(C3(C)NC(=N)N(CC4CC(=O)N(Cc5ccccc5)C4)C3=O)c2)c1 (stereo not shown) | < 5
22 | CN1C(=N)N[C@](C)(c2cc(-c3cc(C#N)cc(C#N)c3)cs2)CC1=O | < 5
23 | CC(C)C1(c2cccc(Br)c2)NC(=N)N(C)C1=O (stereo not shown) | < 5
24 | CN1C(=N)N[C@](C)(c2cc(-c3ccc(F)c(C#N)c3)cs2)[C@@H](C2CC2)C1=O | < 5
25 | CN1C(=N)N[C@](C)(c2cccc(N3CCCCC3)c2)CC1=O | < 5
26 | N=C1NC(c2ccccc2)(c2ccccc2)C(=O)N1Cc1cccc(NC(=O)C2CCCC2)c1 | < 5
27 | CCCN(CCC)C(=O)CCCCN1C(=N)NC(c2ccccc2)(c2ccccc2)C1=O | < 5
28 | CC1(c2cccc(-c3cccc(Cl)c3)c2)NC(=N)N(CC2CCN(C(=O)C3CCCCC3)C2)C1=O (stereo not shown) | < 5
29 | CN1C(=N)N[C@](CCc2ccccc2)(C[C@H]2CCC[C@@H](NC(=O)c3ccncc3)C2)C1=O | < 5
30 | CN1C(=N)NC(c2ccccc2)(c2cccc(NCc3ccccc3)c2)C1=O (racemic) | < 5
31 | CN1C(=N)N[C@](C)(c2sccc2Cl)CC1=O | < 5
32 | CCc1cccc(-n2cc([C@]3(C)CC(=O)N(C)C(=N)N3)cn2)c1 | < 5
33 | Cc1c(-c2cccc(C#N)c2)csc1[C@]1(C)CC(=O)N(C)C(=N)N1 | < 5
34 | CCc1cccc(-c2cc([C@]3(C)CC(=O)N(C)C(=N)N3)nn2C)c1 | < 5
35 | CN1C(=N)N[C@](C)(c2cc(-c3ccc(F)c(C#N)c3)nn2C)CC1=O | < 5
36 | CN1C(=N)N[C@](C)(c2ccc(F)cc2F)CC1=O | < 5
37 | N=C1NC(c2ccccc2)(c2ccccc2)C(=O)N1Cc1cccc(NC(=O)CC2CCCC2)c1 | < 5
38 | CN1C(=N)N[C@](C)(c2ncc(-c3cccc(Cl)c3)s2)CC1=O | < 5

Second part, the compound after the results:

Row | Ki [µM] | SMILES
39 | < 5 | CN1C(=N)N[C@](CCC2CCCCC2)(C[C@H]2CCC[C@H](NCCc3ccccc3)C2)C1=O
40 | < 5 | CN1C(=N)N[C@](CCC2CCCCC2)(C[C@H]2CCC[C@@H](NS(=O)(=O)c3ccccc3)C2)C1=O

Molecular target: T3, Mature human Renin (Homo sapiens, UniProt P00797)
T3 construct: The prodomain of the recombinant human renin-V5-6His was removed by limited proteolysis using immobilized TPCK-trypsin to give mature-human renin; V5 (C); 6His (C); made in house
T3 sequence (P00797 67-406): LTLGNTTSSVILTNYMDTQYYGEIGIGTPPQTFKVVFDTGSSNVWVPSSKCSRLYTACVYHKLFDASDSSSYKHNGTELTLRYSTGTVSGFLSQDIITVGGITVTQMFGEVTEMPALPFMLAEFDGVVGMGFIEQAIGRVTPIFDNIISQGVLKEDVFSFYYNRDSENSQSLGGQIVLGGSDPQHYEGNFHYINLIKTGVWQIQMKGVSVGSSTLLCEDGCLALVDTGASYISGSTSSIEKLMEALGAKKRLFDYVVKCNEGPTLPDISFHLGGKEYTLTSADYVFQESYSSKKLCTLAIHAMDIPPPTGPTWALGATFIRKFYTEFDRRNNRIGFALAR
Assay: Human Mature Renin Enzyme Assay (FRET)
Format: biochemical
Settings: 100 μM compound; percent decrease in renin induced fluorescence after 40 min at 30 degrees celsius
Source text: Human Renin was cloned from a human kidney cDNA library and C-terminally epitope-tagged with the V5-6His sequence into pCDNA3.1. pCNDA3.1-Renin-V5-6His was stably expressed in HEK293 cells and purified to >80% using standard Ni-Affinity chromatography. The prodomain of the recombinant human renin-V5-6His was removed by limited proteolysis using immobilized TPCK-trypsin to give mature-human renin. Renin enzymatic activity was monitored using a commercially available fluorescence resonance energy transfer (FRET) peptide substrate, RS-1 (Molecular Probes, Eugene, Oreg.) in 50 mM Tris-HCl pH 8.0, 100 mM NaCl, 0.1% Brij-35 and 5% DMSO buffer for 40 mins at 30 degrees celsius in the presence or absence of different concentrations of test compounds. Mature human Renin was present at approximately 200 nM. Inhibitory activity was defined as the percent decrease in renin induced fluorescence at the end of the 40 min incubation compared to vehicle controls and samples lacking enzyme.

Row | % inhibition of renin at 100 μM [%] | SMILES
41 | 76.9 | CCC[C@H]1CN(Cc2ccc(CN3C(=N)N[C@](CCC4CCCCC4)(CC4CCCCC4)C3=O)cc2)C(=O)N1
42 | 68.8 | CN1C(=N)N[C@](CCC2CCCCC2)(C[C@H]2CCC[C@@H](Nc3cccnc3)C2)C1=O
43 | 75.3 | CCC[C@H]1CN(Cc2ccc(CN3C(=N)NC(CCC4CCCCC4)(CC4CCCCC4)C3=O)cc2)C(=O)N1 (stereo partly shown)
